These results are taken from paper PMC12484723, “COOKIE-Pro: covalent inhibitor binding kinetics profiling on the proteome scale” (Nature Communications, 2025).

The target of one assay is T1, TEC kinase (Homo sapiens, UniProt P42680).
T1 sequence (P42680 1-631): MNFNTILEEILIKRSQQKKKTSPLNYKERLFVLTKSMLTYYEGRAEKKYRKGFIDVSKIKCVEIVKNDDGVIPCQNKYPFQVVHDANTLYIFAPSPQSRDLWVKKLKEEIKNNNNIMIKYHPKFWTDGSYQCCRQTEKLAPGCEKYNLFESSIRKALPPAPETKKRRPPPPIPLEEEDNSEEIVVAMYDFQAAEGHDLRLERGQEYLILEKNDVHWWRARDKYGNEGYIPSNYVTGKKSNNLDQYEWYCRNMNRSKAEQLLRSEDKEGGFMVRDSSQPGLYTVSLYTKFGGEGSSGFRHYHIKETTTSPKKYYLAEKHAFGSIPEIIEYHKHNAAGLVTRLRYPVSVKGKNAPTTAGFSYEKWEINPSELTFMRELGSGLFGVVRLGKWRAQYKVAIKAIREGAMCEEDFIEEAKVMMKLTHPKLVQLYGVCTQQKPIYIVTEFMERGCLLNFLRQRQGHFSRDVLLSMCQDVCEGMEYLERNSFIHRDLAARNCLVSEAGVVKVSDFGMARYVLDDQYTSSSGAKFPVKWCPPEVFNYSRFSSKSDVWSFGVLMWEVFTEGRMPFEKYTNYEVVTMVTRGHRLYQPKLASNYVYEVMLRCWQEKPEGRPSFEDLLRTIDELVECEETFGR
Nature of the assay: COOKIE-Pro competition chemoproteomics in permeabilized Ramos cells (kinact, KI). Type of assay: cell-based.

The target of a further assay is BLK (Homo sapiens, UniProt P51451). The description is as above. Type of assay: cell-based.
BLK, sequence (P51451 2-505): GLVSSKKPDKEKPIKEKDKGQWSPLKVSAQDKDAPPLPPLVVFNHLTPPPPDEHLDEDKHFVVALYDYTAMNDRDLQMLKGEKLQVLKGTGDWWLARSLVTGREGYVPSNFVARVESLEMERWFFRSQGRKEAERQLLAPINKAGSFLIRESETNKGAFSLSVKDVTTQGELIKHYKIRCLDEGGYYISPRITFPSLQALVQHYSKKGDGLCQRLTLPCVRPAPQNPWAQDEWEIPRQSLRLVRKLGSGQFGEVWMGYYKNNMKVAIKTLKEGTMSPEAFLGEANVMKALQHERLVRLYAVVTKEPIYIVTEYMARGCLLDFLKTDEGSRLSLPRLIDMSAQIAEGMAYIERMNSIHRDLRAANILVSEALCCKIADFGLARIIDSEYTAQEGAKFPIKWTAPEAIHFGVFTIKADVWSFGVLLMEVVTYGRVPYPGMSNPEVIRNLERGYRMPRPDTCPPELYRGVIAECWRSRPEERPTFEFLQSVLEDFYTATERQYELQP

Take `C=CC(=O)N1CCC[C@@H](n2nc(-c3ccc(Oc4ccccc4)cc3)c3c(N)ncnc32)C1` [ibrutinib]: the KI (inactivation) at TEC kinase is 233 nM; at BLK it was 28 nM.
